Patent US20220033784A1 (priority 2020, published 2022)

What was measured:
NK cells = assay: pSTAT5 flow cytometry in hPBMCs: NK cells; format: cell-based, human; conditions: for Selectivity NK/Treg: larger numbers = greater selectivity for NK cells over Treg cells; for EC50: pSTAT5 MFI in hPBMCs, 20 minutes at 37° C., read-out: EC50 NK cell
Protocol: (§1) In this experiment, the ability of the IL-2 variants to activate CD8 T cells, NK cells, and Treg cells was measured by monitoring relative changes in pSTAT5 in response to treatment of the cells with the IL-2 variants. The IL-2 variants tested in this experiment were each fused to a human IgG Fc domain as described in Example 15. […]; Blood from healthy volunteers was taken and hPBMCs were isolated using a ficoll-paque (GE Healthcare) gradient, washed with PBS to remove platelets, and cleared of red blood cells using ACK lysis buffer (Gibco). Cells were then plated at 1*10e6 cells/well in 90 uL serum-free RPMI 1640 media (Gibco) and allowed to rest for 2-4 hours at 37° C. After resting, cells were treated the IL-2 molecules listed above (10 uL), at the indicated concentrations for 20 minutes at 37° C., and 25 uL 20% PFA was immediately added with gentle pipetting. Cells were then pelleted by centrifugation and aspirated (400 RCF, 7 minutes).
(§2) Phosflow Perm Buffer III (BD Biosciences) was added (200 uL), and the cells were mixed gently by pipetting up and down once to prevent clumping. Cells were then washed twice with 200 uL FACS buffer followed by pelleting by centrifugation (400 RCF, 7 minutes). Cells were in resuspended in 200 uL FACS buffer and incubated with the antibodies in Table D and Table E per standard procedure then suspended in 200 uL FACS buffer for FACS analysis. Data was analyzed using FlowJo v10 software.

[1] = tested on: HH cells (IL-2 CD122/CD132 (β/γ) receptor complex); assay: pSTAT5 ELISA in HH cells; format: cell-based; conditions: for Selectivity HH/iTreg: higher value = greater selectivity for HH cells; for EC50: pSTAT5 level 50% of maximum, InstantOne ELISA, read-out: EC50 HH T cell
Protocol: (§3) The ability of the IL-2 variants to activate HH cells and iTregs was measured by monitoring relative changes in phosphorylated STAT5 (pSTAT5) in response to treatment of the cells with the IL-2 variants. pSTAT5 is known to be a downstream consequence of IL-2 signaling. HH T cells (ATCC CRL-2105) are a line of T cells that lack the alpha chain of the IL-2 receptor complex, but that contain the beta and gamma chains of the IL-2 receptor complex. iTreg cells were prepared from Fresh Leuko Paks obtained from […] Technologies (CAT #70500.1, Donor #D001003551).
(§4) For IL-2 activation, the HH cells and iTreg cells were plated at 2*10e6 cells/well in 50 ul serum-free RPMI 1640 media (Gibco), and allowed to rest at 37° C. After resting, cells were treated the IL-2 molecules listed above, and cells were then pelleted by centrifugation.
(§5) Following treatment with the IL-2 molecules, cell induction status was evaluated by the InstantOne ELISA pSTAT5 detection kit (Invitrogen).

CD8 T cells = assay: pSTAT5 flow cytometry in hPBMCs: CD8 T cells; format: cell-based, human; conditions: for Selectivity CD8/Treg: larger numbers = greater selectivity for CD8 T cells over Treg cells; for EC50: pSTAT5 MFI in hPBMCs, 20 minutes at 37° C., read-out: EC50 CD8 T cell
Protocol: as §1, §2

Treg cells = assay: pSTAT5 flow cytometry in hPBMCs: Treg cells; format: cell-based, human; conditions: pSTAT5 MFI in hPBMCs, 20 minutes at 37° C.; read-out: EC50 Treg cell
Protocol: as §1, §2

[2] = tested on: iTreg cells (IL-2 CD25/CD122/CD132 (α/β/γ) receptor complex); assay: pSTAT5 ELISA in iTreg cells; format: cell-based; conditions: pSTAT5 level 50% of maximum, InstantOne ELISA; read-out: EC50 iTreg cell
Protocol: as §3, §4, §5

Substance | Selectivity NK/Treg (NK cells) | EC50 (NK cells) [nM] | Selectivity HH/iTreg [1] | EC50 [1] [nM] | Selectivity CD8/Treg (CD8 T cells) | EC50 (CD8 T cells) [nM] | EC50 (Treg cells) [nM] | EC50 [2] [nM]
Fc-IL2-R38N:L40T | 2.58 | 3.06 | 6.75 × 10^−4 | 163 | 0.3 | 26.5 | 7.89 | 0.11
Fc-IL2-E62N:K64T | 0.62 | 3.65 | 3.84 × 10^−4 | 52.1 | 0.09 | 25.5 | 2.26 | 0.02
Fc-IL2-L72N:Q74T | 0.98 | 2.33 | 8.4 × 10^−4 | 47.6 | 0.1 | 22.1 | 2.29 | 0.04
Fc-IL2-K35N | 0.0276 | 2.54 | – | – | 0.00284 | 24.6 | 0.07 | –
Fc-IL2-T41N:K43T | 0.7 | 3.05 | 2.69 × 10^−4 | 37.2 | 0.07 | 31.2 | 2.13 | 0.01
